{"source": "ChEMBL document CHEMBL2331373", "about": "“Synthesis and antitubercular activity of amino alcohol fused spirochromone conjugates” (2013)", "data": [{"tested_on": "Mycobacterium tuberculosis", "test": "Antimycobacterial activity against Mycobacterium tuberculosis H37Rv ATCC 27294 by agar dilution method", "format": "functional", "units": {"MIC": "µg/mL"}, "values": [{"compound": "COc1ccc(NCC(O)COc2ccc3c(c2)OC2(CCCC2)CC3=O)cc1", "note": "(stereo not drawn)", "MIC": 25}, {"compound": "CC(C)c1ccc(NCC(O)COc2ccc3c(c2)OC2(CCN(C(=O)OC(C)(C)C)CC2)CC3=O)cc1", "note": "(stereo not drawn)", "MIC": 12.5}, {"compound": "Cc1ccccc1NCC(O)COc1ccc2c(c1)OC1(CCCC1)CC2=O", "note": "(stereo not drawn)", "MIC": 12.5}, {"compound": "O=C1CC2(CCCC2)Oc2cc(OCC(O)CNc3ccccc3Cl)ccc21", "note": "(stereo not drawn)", "MIC": 6.25}, {"compound": "CC(C)c1ccccc1NCC(O)COc1ccc2c(c1)OC1(CCCC1)CC2=O", "note": "(stereo not drawn)", "MIC": 6.25}, {"compound": "COc1ccccc1NCC(O)COc1ccc2c(c1)OC1(CCCC1)CC2=O", "note": "(stereo not drawn)", "MIC": 12.5}, {"compound": "O=C1CC2(CCCC2)Oc2cc(OCC(O)CNc3cccc(F)c3)ccc21", "note": "(stereo not drawn)", "MIC": 3.13}, {"compound": "CC(C)c1ccc(NCC(O)COc2ccc3c(c2)OC2(CCCC2)CC3=O)cc1", "note": "(stereo not drawn)", "MIC": 6.25}, {"compound": "O=C1CC2(CCCC2)Oc2cc(OCC(O)CNc3ccc([N+](=O)[O-])cc3O)ccc21", "note": "(stereo not drawn)", "MIC": 6.25}, {"compound": "COc1ccc(CNCC(O)COc2ccc3c(c2)OC2(CCCC2)CC3=O)cc1", "note": "(stereo not drawn)", "MIC": 12.5}, {"compound": "O=C1CC2(CCCC2)Oc2cc(OCC(O)CN3CCOCC3)ccc21", "note": "(stereo not drawn)", "MIC": "> 25"}, {"compound": "O=C1CC2(CCCCC2)Oc2cc(OCC(O)CNc3ccccc3)ccc21", "note": "(stereo not drawn)", "MIC": 12.5}, {"compound": "Cc1ccccc1NCC(O)COc1ccc2c(c1)OC1(CCCCC1)CC2=O", "note": "(stereo not drawn)", "MIC": 6.25}, {"compound": "COc1ccccc1NCC(O)COc1ccc2c(c1)OC1(CCCCC1)CC2=O", "note": "(stereo not drawn)", "MIC": 12.5}, {"compound": "COc1ccc(NCC(O)COc2ccc3c(c2)OC2(CCCCC2)CC3=O)cc1", "note": "(stereo not drawn)", "MIC": 12.5}, {"compound": "CC(C)c1ccc(NCC(O)COc2ccc3c(c2)OC2(CCCCC2)CC3=O)cc1", "note": "(stereo not drawn)", "MIC": 6.25}, {"compound": "CC(C)(C)OC(=O)N1CCC2(CC1)CC(=O)c1ccc(OCC(O)CNc3ccccc3)cc1O2", "note": "(stereo not drawn)", "MIC": "> 25"}, {"compound": "Cc1ccccc1NCC(O)COc1ccc2c(c1)OC1(CCN(C(=O)OC(C)(C)C)CC1)CC2=O", "note": "(stereo not drawn)", "MIC": 25}, {"compound": "COc1ccccc1NCC(O)COc1ccc2c(c1)OC1(CCN(C(=O)OC(C)(C)C)CC1)CC2=O", "note": "(stereo not drawn)", "MIC": 25}, {"compound": "COc1ccc(NCC(O)COc2ccc3c(c2)OC2(CCN(C(=O)OC(C)(C)C)CC2)CC3=O)cc1", "note": "(stereo not drawn)", "MIC": "> 25"}, {"compound": "O=C1CC2(CCCC2)Oc2cc(OCC(O)CNc3ccccc3)ccc21", "note": "(stereo not drawn)", "MIC": 25}, {"compound": "CC[C@@H](CO)NCCN[C@@H](CC)CO", "note": "[ETHAMBUTOL]", "MIC": 1.56}, {"compound": "CO[C@H]1/C=C/O[C@@]2(C)Oc3c(C)c(O)c4c(O)c(c(/C=N/N5CCN(C)CC5)c(O)c4c3C2=O)NC(=O)/C(C)=C\\C=C\\[C@H](C)[C@H](O)[C@@H](C)[C@@H](O)[C@@H](C)[C@H](OC(C)=O)[C@@H]1C", "note": "[RIFAMPIN]", "MIC": 0.2}]}]}
